This data set in a line: RuAAC macrocyclisation of azide/terminal alkyne linear peptidomimetics to 1,5-triazole ([Cp*RuCl]4 0.1 eq, Ar-degassed), then Boc removal (TMSCl/MeOH GP4 or HCl/dioxane GP5). Conditions: toluene (reflux), 1.25 mM, 111.0 °C, 18.0 h, 2 steps.

The compound `COC(=O)[C@@H]1Cc2ccc(cc2)-n2nncc2CCC(=O)NCCC[C@H](N)C(=O)N1` [Boc-Orn(4-pentynoyl)-Phe(4-N3)-OMe] returned a ring closure, yield over several steps (from C#CCCC(=O)NCCC[C@H](NC(=O)OC(C)(C)C)C(=O)N[C@@H](Cc1ccc(N=[N+]=[N-])cc1)C(=O)OC, 18-membered ring) of 62%.

On to `COC(=O)[C@@H]1Cc2ccc(cc2)-n2nncc2CCCC(=O)NCCC[C@H](N)C(=O)N1` [Boc-Orn(5-hexynoyl)-Phe(4-N3)-OMe], for which the ring closure, yield over several steps (from C#CCCCC(=O)NCCC[C@H](NC(=O)OC(C)(C)C)C(=O)N[C@@H](Cc1ccc(N=[N+]=[N-])cc1)C(=O)OC, 19-membered ring) amounted to 97%.

In turn, `COC(=O)[C@@H]1CCCn2nncc2CCC(=O)NCCC[C@H](N)C(=O)N1` [Boc-Orn(4-pentynoyl)-Orn(N3)-OMe] came in with a ring closure, yield over several steps (from C#CCCC(=O)NCCC[C@H](NC(=O)OC(C)(C)C)C(=O)N[C@@H](CCCN=[N+]=[N-])C(=O)OC, 16-membered ring) of 99%.

For `COC(=O)[C@@H]1CCCCNC(=O)[C@H](Cc2ccccc2)n2nncc2CCCC(=O)NC[C@H](N)C(=O)N1` [Boc-Dap(5-hexynoyl)-Lys(N3-Phe)-OMe], the ring closure, yield over several steps (from C#CCCCC(=O)NC[C@H](NC(=O)OC(C)(C)C)C(=O)N[C@@H](CCCCNC(=O)[C@H](Cc1ccccc1)N=[N+]=[N-])C(=O)OC, 19-membered ring) was 99%.

Compound `COC(=O)[C@@H]1CCCn2nncc2CCCC(=O)NC[C@H](N)C(=O)N1` [Boc-Dap(5-hexynoyl)-Orn(N3)-OMe] gave a ring closure, yield over several steps (from C#CCCCC(=O)NC[C@H](NC(=O)OC(C)(C)C)C(=O)N[C@@H](CCCN=[N+]=[N-])C(=O)OC, 15-membered ring) of 99%.

As to `COC(=O)[C@@H]1CCCCn2nncc2CCC(=O)NC[C@H](N)C(=O)N1` [Boc-Dap(4-pentynoyl)-Lys(N3)-OMe], the ring closure, yield over several steps (from C#CCCC(=O)NC[C@H](NC(=O)OC(C)(C)C)C(=O)N[C@@H](CCCCN=[N+]=[N-])C(=O)OC, 15-membered ring) is 88%.

`COC(=O)[C@@H]1CCCCNC(=O)[C@H](Cc2ccccc2)n2nncc2CCCC(=O)NCCC[C@H](N)C(=O)N1` [Boc-Orn(5-hexynoyl)-Lys(N3-Phe)-OMe]: the ring closure, yield over several steps (from C#CCCCC(=O)NCCC[C@H](NC(=O)OC(C)(C)C)C(=O)N[C@@H](CCCCNC(=O)[C@H](Cc1ccccc1)N=[N+]=[N-])C(=O)OC, 21-membered ring) came out at 86%.

Under “from C#CCNC(=O)NCCCC[C@H](NC(=O)OC(C)(C)C)C(=O)N[C@@H](CCCN=[N+]=[N-])C(=O)OC, 17-membered ring”, `COC(=O)[C@@H]1CCCn2nncc2CNC(=O)NCCCC[C@H](N)C(=O)N1` [Boc-Lys(CONH-propargyl)-Orn(N3)-OMe] came in with a ring closure, yield over several steps of 99%.

On to `COC(=O)[C@@H]1CCCCNC(=O)[C@H](Cc2ccccc2)n2nncc2CNC(=O)NCCC[C@H](N)C(=O)N1` [Boc-Orn(CONH-propargyl)-Lys(N3-Phe)-OMe], for which, under “from C#CCNC(=O)NCCC[C@H](NC(=O)OC(C)(C)C)C(=O)N[C@@H](CCCCNC(=O)[C@H](Cc1ccccc1)N=[N+]=[N-])C(=O)OC, 20-membered ring”, the ring closure, yield over several steps is 56%.

As to `COC(=O)[C@@H]1CCCCNC(=O)[C@H](Cc2ccccc2)n2nncc2CNC(=O)NC[C@H](N)C(=O)N1` [Boc-Dap(CONH-propargyl)-Lys(N3-Phe)-OMe], the ring closure, yield over several steps (from C#CCNC(=O)NC[C@H](NC(=O)OC(C)(C)C)C(=O)N[C@@H](CCCCNC(=O)[C@H](Cc1ccccc1)N=[N+]=[N-])C(=O)OC, 18-membered ring) was 38%.

Compound `COC(=O)[C@@H]1CCCCn2nncc2CCCC(=O)NC[C@H](N)C(=O)N1` [Boc-Dap(5-hexynoyl)-Lys(N3)-OMe] yielded a ring closure, yield over several steps (from C#CCCCC(=O)NC[C@H](NC(=O)OC(C)(C)C)C(=O)N[C@@H](CCCCN=[N+]=[N-])C(=O)OC, 16-membered ring) of 99%.

Consider `COC(=O)[C@@H]1CNC(=O)[C@H](Cc2ccccc2)n2nncc2CCCC(=O)NCCCC[C@H](N)C(=O)N1` [Boc-Lys(5-hexynoyl)-Dap(N3-Phe)-OMe], for which the ring closure, yield over several steps (from C#CCCCC(=O)NCCCC[C@H](NC(=O)OC(C)(C)C)C(=O)N[C@@H](CNC(=O)[C@H](Cc1ccccc1)N=[N+]=[N-])C(=O)OC, 19-membered ring) is 99%.

Consider `COC(=O)[C@@H]1CCCCn2nncc2CCCC(=O)NCCC[C@H](N)C(=O)N1` [Boc-Orn(5-hexynoyl)-Lys(N3)-OMe], for which the ring closure, yield over several steps (from C#CCCCC(=O)NCCC[C@H](NC(=O)OC(C)(C)C)C(=O)N[C@@H](CCCCN=[N+]=[N-])C(=O)OC, 18-membered ring) was determined as 99%.

With `COC(=O)[C@@H]1CCCn2nncc2CCCC(=O)Nc2ccc(cc2)C[C@H](N)C(=O)N1` [Boc-Phe(4-NH-5-hexynoyl)-Orn(N3)-OMe], under “from C#CCCCC(=O)Nc1ccc(C[C@H](NC(=O)OC(C)(C)C)C(=O)N[C@@H](CCCN=[N+]=[N-])C(=O)OC)cc1, 19-membered ring”, the ring closure, yield over several steps was 68%.

Take `COC(=O)[C@@H]1CCCCn2nncc2CCCC(=O)NCC[C@H](N)C(=O)N1` [Boc-Dab(5-hexynoyl)-Lys(N3)-OMe]: the ring closure, yield over several steps (from C#CCCCC(=O)NCC[C@H](NC(=O)OC(C)(C)C)C(=O)N[C@@H](CCCCN=[N+]=[N-])C(=O)OC, 17-membered ring) turned out to be 99%.

In the case of `COC(=O)[C@@H]1CCCCn2nncc2CCC(=O)NCCCC[C@H](N)C(=O)N1` [Boc-Lys(4-pentynoyl)-Lys(N3)-OMe], the ring closure, yield over several steps (from C#CCCC(=O)NCCCC[C@H](NC(=O)OC(C)(C)C)C(=O)N[C@@H](CCCCN=[N+]=[N-])C(=O)OC, 18-membered ring) was 37%.

With `COC(=O)[C@@H]1CNC(=O)[C@H](Cc2ccccc2)n2nncc2CCC(=O)NCCCC[C@H](N)C(=O)N1` [Boc-Lys(4-pentynoyl)-Dap(N3-Phe)-OMe], the ring closure, yield over several steps (from C#CCCC(=O)NCCCC[C@H](NC(=O)OC(C)(C)C)C(=O)N[C@@H](CNC(=O)[C@H](Cc1ccccc1)N=[N+]=[N-])C(=O)OC, 18-membered ring) was determined as 90%.

`COC(=O)[C@@H]1CCCCNC(=O)[C@H](Cc2ccccc2)n2nncc2CCCC(=O)NCC[C@H](N)C(=O)N1` [Boc-Dab(5-hexynoyl)-Lys(N3-Phe)-OMe] yielded a ring closure, yield over several steps (from C#CCCCC(=O)NCC[C@H](NC(=O)OC(C)(C)C)C(=O)N[C@@H](CCCCNC(=O)[C@H](Cc1ccccc1)N=[N+]=[N-])C(=O)OC, 20-membered ring) of 87%.

As for `COC(=O)[C@@H]1CCCCn2nncc2CCC(=O)NCC[C@H](N)C(=O)N1` [Boc-Dab(4-pentynoyl)-Lys(N3)-OMe], the ring closure, yield over several steps (from C#CCCC(=O)NCC[C@H](NC(=O)OC(C)(C)C)C(=O)N[C@@H](CCCCN=[N+]=[N-])C(=O)OC, 16-membered ring) was 99%.

Take `COC(=O)[C@@H]1Cc2ccc(cc2)-n2nncc2CCC(=O)NCC[C@H](N)C(=O)N1` [Boc-Dab(4-pentynoyl)-Phe(4-N3)-OMe]: the ring closure, yield over several steps (from C#CCCC(=O)NCC[C@H](NC(=O)OC(C)(C)C)C(=O)N[C@@H](Cc1ccc(N=[N+]=[N-])cc1)C(=O)OC, 17-membered ring) was determined as 83%.

The compound `COC(=O)[C@@H]1CCCCn2nncc2CNC(=O)NC[C@H](N)C(=O)N1` [Boc-Dap(CONH-propargyl)-Lys(N3)-OMe] had a ring closure, yield over several steps (from C#CCNC(=O)NC[C@H](NC(=O)OC(C)(C)C)C(=O)N[C@@H](CCCCN=[N+]=[N-])C(=O)OC, 15-membered ring) of 73%.

In the case of `COC(=O)[C@@H]1CNC(=O)[C@H](Cc2ccccc2)n2nncc2CNC(=O)NC[C@H](N)C(=O)N1` [Boc-Dap(CONH-propargyl)-Dap(N3-Phe)-OMe], the ring closure, yield over several steps (from C#CCNC(=O)NC[C@H](NC(=O)OC(C)(C)C)C(=O)N[C@@H](CNC(=O)[C@H](Cc1ccccc1)N=[N+]=[N-])C(=O)OC, 15-membered ring) was determined as 40%.

Under “from C#CCCCC(=O)NCC[C@H](NC(=O)OC(C)(C)C)C(=O)N[C@@H](CCCN=[N+]=[N-])C(=O)OC, 16-membered ring”, `COC(=O)[C@@H]1CCCn2nncc2CCCC(=O)NCC[C@H](N)C(=O)N1` [Boc-Dab(5-hexynoyl)-Orn(N3)-OMe] had a ring closure, yield over several steps of 99%.

Consider `COC(=O)[C@@H]1CNC(=O)[C@H](Cc2ccccc2)n2nncc2CCCC(=O)NCC[C@H](N)C(=O)N1` [Boc-Dab(5-hexynoyl)-Dap(N3-Phe)-OMe], for which the ring closure, yield over several steps (from C#CCCCC(=O)NCC[C@H](NC(=O)OC(C)(C)C)C(=O)N[C@@H](CNC(=O)[C@H](Cc1ccccc1)N=[N+]=[N-])C(=O)OC, 17-membered ring) stood at 99%.

Turning to `COC(=O)[C@@H]1CCCn2nncc2CCC(=O)NCC[C@H](N)C(=O)N1` [Boc-Dab(4-pentynoyl)-Orn(N3)-OMe], under “from C#CCCC(=O)NCC[C@H](NC(=O)OC(C)(C)C)C(=O)N[C@@H](CCCN=[N+]=[N-])C(=O)OC, 15-membered ring”, the ring closure, yield over several steps came out at 82%.

Take `COC(=O)[C@@H]1Cc2ccc(cc2)-n2nncc2CNC(=O)NC[C@H](N)C(=O)N1` [Boc-Dap(CONH-propargyl)-Phe(4-N3)-OMe]: under “from C#CCNC(=O)NC[C@H](NC(=O)OC(C)(C)C)C(=O)N[C@@H](Cc1ccc(N=[N+]=[N-])cc1)C(=O)OC, 16-membered ring”, the ring closure, yield over several steps is 27%.

The values above are taken from PMC4441267.
